According to patent US9988381B2, “Five-member-heterocycle fused pyridine compounds, method of producing the same, and use thereof” (SHANGHAI INSTITUTE OF MATERIA MEDICA, CHINESE ACADEMY OF …, priority 2013, dated 2018):
Like-named read-outs stand apart in the source and are kept apart here.

Assays:
[1] = target: T1, c-Met kinase domain recombinant protein (Homo sapiens, UniProt P08581); assay: biochemical; details: for inhibition at 10 µM: read-out: Inhibition rate at 10 μM (%)
T1 construct: 50 μL diluted solution of c-Met kinase domain recombinant protein in reaction buffer was added to initiate the reaction
T1 sequence (P08581 1078-1345 limits assumed): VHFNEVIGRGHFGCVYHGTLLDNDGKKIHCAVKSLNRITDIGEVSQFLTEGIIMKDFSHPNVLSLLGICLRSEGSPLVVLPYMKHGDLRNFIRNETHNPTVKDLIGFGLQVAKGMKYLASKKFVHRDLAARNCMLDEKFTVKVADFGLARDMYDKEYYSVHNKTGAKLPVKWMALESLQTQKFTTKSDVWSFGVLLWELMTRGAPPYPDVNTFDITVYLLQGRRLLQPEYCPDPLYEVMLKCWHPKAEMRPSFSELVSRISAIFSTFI
In short: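 Recombinant c-Met kinase domain phosphorylated immobilised Poly(Glu,Tyr)4:1 for 1 h at 37 °C in 50 mM HEPES pH 7.4, 50 mM MgCl2, 0.5 mM MnCl2, 0.2 mM Na3VO4, 1 mM DTT with ATP. Product measured by anti-phosphotyrosine PY99 ELISA (HRP, 490 nm), giving percent inhibition; ATP-free wells served as control.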

BaF3/TPR-Met cell = assay: Test III: growth inhibition of engineered BaF3/TPR-Met cells (MTT); type: cell-based; details: for inhibition at 0.2 µM / inhibition at 1 µM: Mus musculus; for inhibition at 0.2 µM: read-out: Cell proliferation inhibition rate at 200 nM (%); for inhibition at 1 µM: read-out: Cell proliferation inhibition rate at 1 μM (%)
Protocol: Assays on the growth inhibition of the compounds against engineered BaF3/TPR-Met cell (engineered cell line having TPR-Met fusion protein stably expressed in cytoplasm, persistently activated, Met dependent sensitive cell line; BaF3 cell was purchased from DSMZ, German) were detected using microculture tetrozolium (MTT) staining. A certain amount of BaF3/TPR-Met cells at log phase were inoculated into 96-well culture plate at 90 µL per well, incubated overnight and then 10 μL compound at various concentrations or vehicle control (normal saline) was added, each concentration was tested in triplicate. After incubation with compound for 72 hours, the incubation was terminated, MTT solution (5 mg/mL) was added at 20 μL per well, incubated at 37° C. for 4 hours, then 100 μL triplet solution (10% SDS−5% isobutanol−0.01M HCl) was added, incubated overnight at 37° C., OD value was measured at 570 nm. […] Experiments were conducted in duplicates.

[2] = target: T1, c-Met kinase domain recombinant protein; assay: biochemical; details: for inhibition at 0.1 µM: read-out: Average inhibition rate at 0.1 μM (%); for inhibition at 1 µM: read-out: Average inhibition rate at 1 μM (%); for inhibition at 10 µM: read-out: Average inhibition rate at 10 μM (%)
In short: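 IC50 came from a four-parameter fit of inhibition rates measured by anti-phosphotyrosine (PY99/HRP) ELISA at 490 nm. The reaction ran 1 hour at 37° C with 5 μM ATP, c-Met kinase domain protein and Poly(Glu,Tyr)4:1-coated wells, in HEPES pH 7.4 buffer containing MgCl2, MnCl2, Na3VO4 and DTT.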

[3] = test system: human lung cancer EBC-1 xenograft; assay: Test IV: human non-small cell lung cancer EBC-1 xenograft growth in nude mice; type: in vivo
Protocol: EBC-1 cells were implanted subcutaneously in the right axilla of nude mice at 5×10^6 cells per mouse, xenograft developed thereby was passaged in nude mice for 3 generations prior to use. Tumor tissue at rapid growth phase was taken, minced under sterile condition into pieces of about 1.5 mm^3, then implanted subcutaneously in the right axilla of nude mice.
Xenografted tumor diameters were measured twice per week, and body weights of the mice were measured at the same time. Tumor Volume (TV) was calculated by the following equation: TV=1/2×a×b^2, wherein a, b refers to the length and width, respectively. Based on the measurement, Relative Tumor Volume (RTV) was calculated by the following equation: RTV=Vt/V0, wherein V0 is the tumor volume measured when divided for administration (i.e., do), Vt is the tumor volume measured at each timepoint.

EBC-1 cell = assay: Test III: growth inhibition of non-small cell carcinoma EBC-1 cell (SRB); type: cell-based; details: Homo sapiens, EBC-1, 72 h

inhibition at 10 µM [1] | inhibition at 0.1 µM [2] | inhibition at 1 µM [2] | inhibition at 10 µM [2] | SMILES | inhibition at 0.2 µM (BaF3/TPR-Met cell; BaF3/TPR-Met, 200 nM, 72 hours) | inhibition at 1 µM (BaF3/TPR-Met cell; BaF3/TPR-Met, 1 μM, 72 hours) | also measured
72.3% | 64.6% | 66.7% | 72.3% | O=S(=O)(c1cnc2cccnn12)n1ncc2ncc(-c3cnn(C4CCNCC4)c3)cc21 [Example 51] | 15.3% | 7.7% | –
65.7% | 67.5% | 68.4% | 74.1% | CCN1CCC(n2cc(-c3cnc4cnn(S(=O)(=O)c5cnc6ccccn56)c4c3)cn2)CC1 [Example 53, 1-(imidazo[1,2-a]pyridine-3-sulfonyl)-6-{{1-[(1-ethyl)-4-piperidinyl]}-4-pyrazolyl}-1-H-pyrazolo[4,3-b]pyridine] | – | 90.9% | –
70.7% | 55.9% | 57.9% | 62.1% | CC(=O)N1CCC(n2cc(-c3cnc4cnn(S(=O)(=O)c5cnc6ccccn56)c4c3)cn2)CC1 [Example 54, 1-(imidazo[1,2-a]pyridine-3-sulfonyl)-6-{{1-[(1-acetyl)-4-piperidinyl]}-4-pyrazolyl}-1-H-pyrazolo[4,3-b]pyridine] | 88.3% | 89.6% | –
74.1% | 58.8% | 58.3% | 60.8% | O=C(C1CC1)N1CCC(n2cc(-c3cnc4cnn(S(=O)(=O)c5cnc6ccccn56)c4c3)cn2)CC1 [Example 55, 1-(imidazo[1,2-a]pyridine-3-sulfonyl)-6-{{1-[(1-cyclopropylcarbonyl)-4-piperidinyl]}-4-pyrazolyl}-1-H-pyrazolo[4,3-b]pyridine] | – | – | inhibition at 0.2 µM (BaF3/TPR-Met cell; BaF3, 72 h): 89.3%; inhibition at 1 µM (BaF3/TPR-Met cell; BaF3, 72 h): 89.8%; IC50 [2]: 1.3 ± 0.1 nM
62.1% | 53.3% | 56.3% | 58.9% | O=C(C1CCCC1)N1CCC(n2cc(-c3cnc4cnn(S(=O)(=O)c5cnc6ccccn56)c4c3)cn2)CC1 [Example 56, 1-(imidazo[1,2-a]pyridine-3-sulfonyl)-6-{{1-[(1-cyclopentylcarbonyl)-4-piperidinyl]}-4-pyrazolyl}-1-H-pyrazolo[4,3-b]pyridine] | 79.1% | 90.6% | –
60.8% | 52.4% | 54.5% | 60.3% | O=C(C1CCCCC1)N1CCC(n2cc(-c3cnc4cnn(S(=O)(=O)c5cnc6ccccn56)c4c3)cn2)CC1 [Example 57, 1-(imidazo[1,2-a]pyridine-3-sulfonyl)-6-{{1-[(1-cyclohexylcarbonyl)-4-piperidinyl]}-4-pyrazolyl}-1-H-pyrazolo[4,3-b]pyridine] | 86.8% | 89.5% | –
60.3% | 51.6% | 51.9% | 59.8% | CC(C)N1CCC(n2cc(-c3cnc4cnn(S(=O)(=O)c5cnc6ccccn56)c4c3)cn2)CC1 [Example 59, 1-(imidazo[1,2-a]pyridine-3-sulfonyl)-6-{{1-[(1-isopropyl)-4-piperidinyl]}-4-pyrazolyl}-1-H-pyrazolo[4,3-b]pyridine] | 70.6% | 89.8% | –
57.4% | 50.1% | 53.4% | 62.6% | O=S(=O)(c1cnc2ccccn12)n1ncc2ncc(-c3cnn(C4CCN(C5CCCC5)CC4)c3)cc21 [Example 60, 1-(imidazo[1,2-a]pyridine-3-sulfonyl)-6-{{1-[(1-cyclopentyl)-4-piperidinyl]}-4-pyrazolyl}-1-H-pyrazolo[4,3-b]pyridine] | 84.8% | 89.4% | –
59.8% | 73.7% | 76% | 83.2% | CC(C)(C)OC(=O)N1CCC(n2cc(-c3cnc4cnn(S(=O)(=O)c5cnc6ccc(Cl)nn56)c4c3)cn2)CC1 [Example 61] | 83.1% | 91.7% | –
83.2% | 59% | 60.4% | 63% | CC(C)(C)OC(=O)N1CCC(n2cc(-c3cnc4cnn(S(=O)(=O)c5cnc6ccc(C(F)(F)F)cn56)c4c3)cn2)CC1 [Example 63] | – | 66.5% | –
– | – | – | – | Cl.O=S(=O)(c1cnc2ccccn12)n1ncc2ncc(-c3cnn(C4CCNCC4)c3)cc21 [Example 66, 1-(imidazo[1,2-a]pyridine-3-sulfonyl)-6-{[1-(4-piperidinyl)]-4-pyrazolyl}-1-H-pyrazolo[4,3-b]pyridine chloride] | – | – | Inhibition rate at 10 μM (%) ([1]; compound 10 μM, Table 1): 63%; Cell proliferation inhibition rate at 1 μM (%) (BaF3/TPR-Met cell; BaF3/TPR-Met, 1 μM, 72 hours): 92.7%; Average inhibition rate at 0.1 μM (%) ([2]; compound 0.1 μM): 73.3%; Average inhibition rate at 1 μM (%) ([2]; compound 1 μM): 75.8%; Average inhibition rate at 10 μM (%) ([2]; compound 10 μM, Table 2): 79.9%
66% | 63.1% | 64.6% | 68.2% | CC(C)(C)OC(=O)N1CCC(n2cc(-c3cnc4cnn(S(=O)(=O)c5cnc6ccc(Cl)cn56)c4c3)cn2)CC1 [Example 67] | 90.3% | 91.6% | –
– | 89.4% | 91.3% | – | CN1CCN(C(=O)c2ccc(-c3cnc4cnn(S(=O)(=O)c5cnc6ccc(-c7cnn(C)c7)cn56)c4c3)cc2)CC1 [Example 142, 1-{(6-[(1-methyl)-4-pyrazolyl]-imidazo[1,2-a]pyridine)-3-sulfonyl}-6-[4-(4-methylpiperazine-1-carbonyl)phenyl]-1-H-pyrazolo[4,3-b]pyridine] | – | – | TV (mm^3, mean ± SD) d21 ([3]; 50 mg/kg po qd/21): 259 ± 421 ^ mm^3; Weight (g) d21 ([3]; 50 mg/kg po qd/21): 21.0 g; GI (%) ([3]; 50 mg/kg po qd/21, d21): 90.65%; RTV (mean ± SD) ([3]; 50 mg/kg po qd/21, d21): 2.23 ± 3.89; T/C (%) ([3]; 50 mg/kg po qd/21, day 21): 16.91%; TV (mm^3, mean ± SD) d21 ([3]; 100 mg/kg po qd/21): 21 ± 34 mm^3; Weight (g) d21 ([3]; 100 mg/kg po qd/21): 20.9 g; GI (%) ([3]; 100 mg/kg po qd/21, d21): 106.70%; RTV (mean ± SD) ([3]; 100 mg/kg po qd/21, d21): 0.14 ± 0.21; T/C (%) ([3]; 100 mg/kg po qd/21, day 21): 1.05%; IC50 [2]: 0.5 ± 0.1 nM; inhibition at 0.2 µM (EBC-1 cell; read-out: Cell proliferation inhibition rate at 200 nM (%)): 92.1%; inhibition at 1 µM (EBC-1 cell; read-out: Cell proliferation inhibition rate at 1 μM (%)): 92.6%

SMILES | inhibition at 10 µM [1] | inhibition at 0.1 µM [2] | inhibition at 1 µM [2] | inhibition at 10 µM [2] | inhibition at 0.2 µM (BaF3/TPR-Met cell; BaF3/TPR-Met, 200 nM, 72 hours) | inhibition at 1 µM (BaF3/TPR-Met cell; BaF3/TPR-Met, 1 μM, 72 hours) | also measured
O=S(=O)(c1cnc2ccccn12)n1ncc2ncc(-c3cnn(C4CCNCC4)c3)cc21 [Example 45, 1-(imidazo[1,2-a]pyridine-3-sulfonyl)-6-{[1-(4-piperidinyl)]-4-pyrazolyl}-1-H-pyrazolo[4,3-b]pyridine] | 89.6% | 73.4% | 76.5% | 89.6% | – | – | inhibition at 0.2 µM (BaF3/TPR-Met cell; BaF3, 72 h): 27.9%; inhibition at 1 µM (BaF3/TPR-Met cell; BaF3, 72 h): 95.9%; IC50 [2]: 2.9 ± 0.6 nM
CC(C)(C)OC(=O)N1CCC(n2cc(-c3cnc4cnn(S(=O)(=O)c5cnn6cccnc56)c4c3)cn2)CC1 [Example 46, 1-(pyrazolo[1,5-a]pyrimidine-3-sulfonyl)-6-{{1-[(1-t-butoxycarbonyl)-4-piperidinyl]}-4-pyrazolyl}-1-H-pyrazolo[4,3-b]pyridine] | 81.3% | 55.9% | 65% | 81.3% | 33.7% | 68% | –
CC(C)(C)OC(=O)N1CCC(n2cc(-c3cnc4cnn(S(=O)(=O)c5cnc6cccnn56)c4c3)cn2)CC1 [Example 49, 1-(imidazo[1,2-b]pyridazine-3-sulfonyl)-6-{{1-[(1-t-butoxycarbonyl)-4-piperidinyl]}-4-pyrazolyl}-1-H-pyrazolo[4,3-b]pyridine] | 76.7% | 71% | 74.5% | 76.7% | 28.4% | 90.5% | –
